Measurements from ChEMBL document CHEMBL2331144, “Synthesis and anticancer activity of analogues of phenstatin, with a phenothiazine A-ring, as a new class of microtubule-targeting agents” (Bioorg Med Chem Lett, 2013).

What was measured:
NCI-H522 = assay: Growth inhibition of human NCI-H522 cells after 48 hrs by sulforhodamine B assay; type: functional; conditions: NCI-H522, 48 h
COLO 205 = assay: Growth inhibition of human COLO205 cells after 48 hrs by sulforhodamine B assay; type: functional; conditions: COLO 205, 48 h
NCI-H460 = assay: Growth inhibition of human NCI-H460 cells after 48 hrs by sulforhodamine B assay; type: functional; conditions: NCI-H460, 48 h
NCI-H23 = assay: Growth inhibition of human NCI-H23 cells after 48 hrs by sulforhodamine B assay; type: functional; conditions: NCI-H23, 48 h
HOP-62 = assay: Growth inhibition of human HOP62 cells after 48 hrs by sulforhodamine B assay; type: functional; conditions: HOP-62, 48 h
HOP-92 = assay: Growth inhibition of human HOP92 cells after 48 hrs by sulforhodamine B assay; type: functional; conditions: HOP-92, 48 h
A549 = assay: Growth inhibition of human A549/ATCC cells after 48 hrs by sulforhodamine B assay; type: functional; conditions: A549, 48 h
SR = assay: Growth inhibition of human SR cells after 48 hrs by sulforhodamine B assay; type: functional
RPMI-8226 = assay: Growth inhibition of human RPMI8226 cells after 48 hrs by sulforhodamine B assay; type: functional; conditions: RPMI-8226, 48 h
MOLT-4 = assay: Growth inhibition of human MOLT4 cells after 48 hrs by sulforhodamine B assay; type: functional; conditions: MOLT-4, 48 h
K562 = assay: Growth inhibition of human K562 cells after 48 hrs by sulforhodamine B assay; type: functional; conditions: K562, 48 h
HL-60(TB) = assay: Growth inhibition of human HL-60(TB) cells after 48 hrs by sulforhodamine B assay; type: functional; conditions: HL-60, 48 h
CCRF-CEM = assay: Growth inhibition of human CCRF-CEM cells after 48 hrs by sulforhodamine B assay; type: functional
[1] = Inhibition of sheep brain tubulin polymerization using DAPI by fluorimetry; design: species or system Ovis aries
Ovis aries = organism: Ovis aries; assay: Inhibition of sheep brain tubulin polymerization at 100 uM using DAPI by fluorimetry
MDA-MB-468 = assay: Growth inhibition of human MDA-MB-468 cells after 48 hrs by sulforhodamine B assay; type: functional; conditions: MDA-MB-468, 48 h
BT-549 = assay: Growth inhibition of human BT549 cells after 48 hrs by sulforhodamine B assay; type: functional; conditions: BT-549, 48 h
[2] = Growth inhibition of human Hs 578T cells after 48 hrs by sulforhodamine B assay; type: functional
MDA-MB-231 = assay: Growth inhibition of human MDA-MB-231 cells after 48 hrs by sulforhodamine B assay; type: functional; conditions: MDA-MB-231, 48 h
MCF7 = assay: Growth inhibition of human MCF7 cells after 48 hrs by sulforhodamine B assay; type: functional; conditions: MCF7, 48 h
SF-539 = assay: Growth inhibition of human SF539 cells after 48 hrs by sulforhodamine B assay; type: functional; conditions: SF-539, 48 h
SNB-75 = assay: Growth inhibition of human SNB75 cells after 48 hrs by sulforhodamine B assay; type: functional; conditions: SNB-75, 48 h
SF-295 = assay: Growth inhibition of human SF295 cells after 48 hrs by sulforhodamine B assay; type: functional; conditions: SF-295, 48 h
SF-268 = assay: Growth inhibition of human SF268 cells after 48 hrs by sulforhodamine B assay; type: functional; conditions: SF-268, 48 h
PC-3 = assay: Growth inhibition of human PC3 cells after 48 hrs by sulforhodamine B assay; type: functional; conditions: PC-3, 48 h
TK-10 = assay: Growth inhibition of human TK10 cells after 48 hrs by sulforhodamine B assay; type: functional; conditions: TK-10, 48 h
DU-145 = assay: Growth inhibition of human DU145 cells after 48 hrs by sulforhodamine B assay; type: functional; conditions: DU-145, 48 h
ACHN = assay: Growth inhibition of human ACHN cells after 48 hrs by sulforhodamine B assay; type: functional
786-0 = assay: Growth inhibition of human 786-0 cells after 48 hrs by sulforhodamine B assay; type: functional; conditions: 786-0, 48 h
UO-31 = assay: Growth inhibition of human UO31 cells after 48 hrs by sulforhodamine B assay; type: functional; conditions: UO-31, 48 h
RXF 393 = assay: Growth inhibition of human RXF393 cells after 48 hrs by sulforhodamine B assay; type: functional; conditions: RXF 393, 48 h
SN12C = assay: Growth inhibition of human SN12C cells after 48 hrs by sulforhodamine B assay; type: functional
CAKI-1 = assay: Growth inhibition of human CAKI-1 cells after 48 hrs by sulforhodamine B assay; type: functional; conditions: CAKI-1, 48 h
A498 = assay: Growth inhibition of human A498 cells after 48 hrs by sulforhodamine B assay; type: functional; conditions: A498, 48 h
IGROV-1 = assay: Growth inhibition of human IGROV1 cells after 48 hrs by sulforhodamine B assay; type: functional; conditions: IGROV-1, 48 h
SK-OV-3 = assay: Growth inhibition of human SKOV3 cells after 48 hrs by sulforhodamine B assay; type: functional; conditions: SK-OV-3, 48 h
[3] = Growth inhibition of human NCI-ADR-RES cells after 48 hrs by sulforhodamine B assay; type: functional
OVCAR-8 = assay: Growth inhibition of human OVCAR8 cells after 48 hrs by sulforhodamine B assay; type: functional; conditions: OVCAR-8, 48 h
OVCAR-4 = assay: Growth inhibition of human OVCAR4 cells after 48 hrs by sulforhodamine B assay; type: functional; conditions: OVCAR-4, 48 h
OVCAR-3 = assay: Growth inhibition of human OVCAR3 cells after 48 hrs by sulforhodamine B assay; type: functional; conditions: OVCAR-3, 48 h
SK-MEL-5 = assay: Growth inhibition of human SK-MEL-5 cells after 48 hrs by sulforhodamine B assay; type: functional; conditions: SK-MEL-5, 48 h
UACC-257 = assay: Growth inhibition of human UACC257 cells after 48 hrs by sulforhodamine B assay; type: functional; conditions: UACC-257, 48 h
LOX IMVI = assay: Growth inhibition of human LOXIMVI cells after 48 hrs by sulforhodamine B assay; type: functional
UACC-62 = assay: Growth inhibition of human UACC62 cells after 48 hrs by sulforhodamine B assay; type: functional; conditions: UACC-62, 48 h
SK-MEL-28 = assay: Growth inhibition of human SK-MEL-28 cells after 48 hrs by sulforhodamine B assay; type: functional; conditions: SK-MEL-28, 48 h
SK-MEL-2 = assay: Growth inhibition of human SK-MEL-2 cells after 48 hrs by sulforhodamine B assay; type: functional; conditions: SK-MEL-2, 48 h
MDA-MB-435 = assay: Growth inhibition of human MDA-MB-435 cells after 48 hrs by sulforhodamine B assay; type: functional; conditions: MDA-MB-435, 48 h
M14 = assay: Growth inhibition of human M14 cells after 48 hrs by sulforhodamine B assay; type: functional; conditions: M14, 48 h
SW-620 = assay: Growth inhibition of human SW620 cells after 48 hrs by sulforhodamine B assay; type: functional; conditions: SW-620, 48 h
KM12 = assay: Growth inhibition of human KM12 cells after 48 hrs by sulforhodamine B assay; type: functional; conditions: KM12, 48 h
HT-29 = assay: Growth inhibition of human HT-29 cells after 48 hrs by sulforhodamine B assay; type: functional; conditions: HT-29, 48 h
HCT-116 = assay: Growth inhibition of human HCT116 cells after 48 hrs by sulforhodamine B assay; type: functional; conditions: HCT-116, 48 h
HCT-15 = assay: Growth inhibition of human HCT15 cells after 48 hrs by sulforhodamine B assay; type: functional; conditions: HCT-15, 48 h
[4] = Growth inhibition of human HCC2998 cells after 48 hrs by sulforhodamine B assay; type: functional; conditions: HCC 2998, 48 h

With `COc1ccc(C(=O)N2c3ccccc3Sc3ccccc32)cc1N` the GI50 (NCI-H522) was 35 nM, the GI50 (COLO 205) was 193 nM and the GI50 (NCI-H460) was 289 nM. For the same compound, the GI50 (NCI-H23) was 437 nM, the GI50 (HOP-62) was 226 nM and the GI50 (HOP-92) was 277 nM. The GI50 (A549) was 187 nM, the GI50 (SR) was 30 nM and the GI50 (RPMI-8226) was 328 nM. The GI50 (MOLT-4) was 380 nM, the GI50 (K562) was 40 nM and the GI50 (HL-60(TB)) was 245 nM. For the same compound, the GI50 (CCRF-CEM) was 268 nM, the IC50 [1] was 11800 nM and the inhibition (Ovis aries) was 99%. It also gave a GI50 (MDA-MB-468) of 50 nM, a GI50 (BT-549) of 877 nM and a GI50 [2] of 424 nM. It also gave a GI50 (MDA-MB-231) of 310 nM, a GI50 (MCF7) of 93 nM and a GI50 (SF-539) of 164 nM. For the same compound, the GI50 (SNB-75) was 257 nM, the GI50 (SF-295) was 71 nM and the GI50 (SF-268) was 958 nM. For the same compound, the GI50 (PC-3) was 310 nM, the GI50 (TK-10) was 575 nM and the GI50 (DU-145) was 291 nM. The GI50 (ACHN) was 472 nM, the GI50 (786-0) was 524 nM and the GI50 (UO-31) was 650 nM. The GI50 (RXF 393) was 130 nM, the GI50 (SN12C) was 798 nM and the GI50 (CAKI-1) was 290 nM. It also gave a GI50 (A498) of 129 nM, a GI50 (IGROV-1) of 721 nM and a GI50 (SK-OV-3) of 244 nM. It also gave a GI50 [3] of 80 nM, a GI50 (OVCAR-8) of 366 nM and a GI50 (OVCAR-4) of 1210 nM. For the same compound, the GI50 (OVCAR-3) was 101 nM, the GI50 (SK-MEL-5) was 53 nM and the GI50 (UACC-257) was 1940 nM. It also gave a GI50 (LOX IMVI) of 881 nM, a GI50 (UACC-62) of 127 nM and a GI50 (SK-MEL-28) of 407 nM. The GI50 (SK-MEL-2) was 134 nM, the GI50 (MDA-MB-435) was 29 nM and the GI50 (M14) was 90 nM. The GI50 (SW-620) was 90 nM, the GI50 (KM12) was 97 nM and the GI50 (HT-29) was 151 nM. The GI50 (HCT-116) was 166 nM, the GI50 (HCT-15) was 73 nM and the GI50 [4] was 683 nM.
